Results: patent publication US7605272B2, “IGF-1R inhibitor” (Kyowa Hakko Kirin Co., Ltd., priority 2005, dated 2009)
Structures can show the parent of a compound that is named as a salt.

Target: T1, IGF-1R (Homo sapiens, UniProt P08069)
T1 construct: purchased Upstate Co. 14-465
Assay: IGF-1R inhibitory activity (kinase reaction, time-resolved fluoroimmunoassay)
Assay type: biochemical
Settings: IGF-1R active recombinant enzyme, test compound 10 μmol/L
Experimental: The IGF-1R inhibitory activity was measured in the following manner.
As IGF-1R, active recombinant enzyme (Catalog No. 14-465) purchased from Upstate Co., was used. To 96 well plate (FIA-PLATE BLACK 96 well FALT-BOTTOM HIGH BINDING, Greiner Bio-one, Catalog No. 655077) coated with NeutroAvidin (Pierce, Catalog No. 31000), biotinylated polyglutamic acid-tyrosine peptide (Nihon Schering K.K., Catalog No. 61GT0BAA) was immobilized and then blocked with 0.25% gelatin to be used as a plate for measuring the kinase reaction. Separately was prepared a solution containing at final concentrations, IGF-1R (200 μg/L), Tris.HCl(pH 7.5)(20 mmol/L), Na3VO4(0.1 mmol/L), MgCl2(1 mmol/L), MnCl2(10 mmol/L), ATP(10 mmol/L), 2-mercaptoethanol (0.04%), BSA(Bovine Serum Albumin) (0.1%), DMSO(0.1%), test compound (10 μmol/L). The solution (each 50 μL) was added to the well of the plate for measuring the kinase reaction and then, enzyme reaction was performed for 30 minutes at 24° C. The plate was washed with TBS-T [10 mmol/L Tris Cl (pH 7.5), 150 mmol/L NaCl, 0.05% Tween 20 (Bio-Rad, Catalog No. 170-6531)] 4 times, then reacted with europium-labeled anti-phosphotyrosine antibody, further washed with TBS-T 4 times and then, measured with time-resolved fluoroimmunoassay (excitation wavelength 340 nm, measuring wavelength 615 nm). The value of a well to which the test compound had not been added was considered as 100% and that of a well where the enzyme and the test compound had not been added was considered as 0%. The relative activity (%) of the well which was added with enzyme and the test compound was measured and by subtracting the calculated value from 100, IGF-1R inhibitory activity of the test compound (%) was determined.

T1 sequence (P08069 959-1367 limits assumed): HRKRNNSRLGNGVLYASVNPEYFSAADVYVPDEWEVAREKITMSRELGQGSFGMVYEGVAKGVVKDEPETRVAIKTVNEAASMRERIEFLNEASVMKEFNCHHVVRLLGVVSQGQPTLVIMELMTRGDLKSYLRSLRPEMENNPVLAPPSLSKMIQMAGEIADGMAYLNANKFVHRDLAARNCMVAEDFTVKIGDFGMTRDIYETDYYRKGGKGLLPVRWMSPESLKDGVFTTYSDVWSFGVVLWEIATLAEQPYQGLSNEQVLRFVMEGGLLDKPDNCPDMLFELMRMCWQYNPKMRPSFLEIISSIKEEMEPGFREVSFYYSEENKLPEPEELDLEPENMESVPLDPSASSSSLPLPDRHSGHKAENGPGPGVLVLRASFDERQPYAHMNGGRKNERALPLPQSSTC

Row | SMILES | inhibition at 10 µM [%] | inhibitory activity (%) at 10 μmol/L [%]
1 | CC1=C(C)C(=O)N(c2ccccc2/C=C/c2n[nH]c3ccccc23)C1=O [Compound 204, (E)-1-{2-[2-(1H-indazol-3-yl)vinyl]phenyl}-3,4-dimethylpyrrole-2,5-dione] | 99.8 | 
2 | O=C1CCCCN1c1ccccc1/C=C/c1n[nH]c2ccccc12 [Compound 206, (E)-1-{2-[2-(1H-indazol-3-yl)vinyl]phenyl}piperidin-2-one] | 101 | 
3 | C(=C\c1cccc2nc(-c3cccs3)oc12)/c1n[nH]c2ccccc12 [Compound 149, (E)-7-[2-(1H-indazol-3-yl)vinyl]-2-(thiophen-2-yl)benzoxazole] | 70 | 
4 | O=C1CCC(=O)N1c1ccccc1/C=C/c1n[nH]c2ccccc12 [Compound 211, (E)-1-{2-[2-(1H-indazol-3-yl)vinyl]phenyl}pyrrolidine-2,5-dione] | 86.7 | 
5 | CN(C)/C=N/c1ccccc1C=Cc1n[nH]c2ccccc12 [Compound 75, (E)-N-{2-[2-(1H-indazol-3-yl)vinyl]phenyl}-N,N-dimethylformamidine] |  | 90.4
6 | O=C1c2ccccc2C(=O)N1c1cccc(Cl)c1/C=C/c1n[nH]c2ccccc12 [Compound 154, (E)-2-{3-chloro-2-[2-(1H-indazol-3-yl)vinyl]phenyl}isoindole-1,3-dione] | 97.1 | 
7 | O=C(Nc1ccccc1/C=C/c1n[nH]c2ccccc12)c1ccc(CO)cc1 [Compound 79, (E)-4-hydroxymethyl-N-{2-[2-(1H-indazol-3-yl)vinyl]phenyl}benzamide] | 97.2 | 
8 | O=c1[nH]c(-c2ccccc2/C=C/c2n[nH]c3ccccc23)no1 [Compound 178, (E)-3-{2-[2-(1H-indazol-3-yl)vinyl]phenyl}-4H-[1,2,4]oxadiazole-5-one] | 71.1 | 
9 | O=C(Nc1ccccc1/C=C/c1n[nH]c2ccccc12)c1cc2ccccc2[nH]1 [Compound 50, (E)-N-{2-[2-(1H-indazol-3-yl)vinyl]phenyl}-1H-indole-2-carboxamide] | 98.5 | 
10 | O=C(c1ccc(/C=C/c2n[nH]c3ccccc23)c(N2C(=O)c3ccccc3C2=O)c1)N1CCOCC1 [Compound 276, (E)-N-{2-[2-(1H-indazol-3-yl)vinyl]-5-(morpholin-4-ylcarbonyl)phenyl}isoindole-1,3-dione] | 99.6 | 
11 | C(=C\c1n[nH]c2ccccc12)/c1ccccc1Nc1ncccn1 [Compound 163, (E)-N-{2-[2-(1H-indazol-3-yl)vinyl]phenyl}-2-pyrimidylamine] | 100 | 
12 | O=C(Nc1ccccc1/C=C/c1n[nH]c2ccccc12)c1ccc(CN2CCOCC2)cc1 [Compound 80, (E)-N-{2-[2-(1H-indazol-3-yl)vinyl]phenyl}-4-(morpholin-4-ylmethyl)benzamide] | 96.6 | 
13 | Nc1ccc2oc(-c3ccccc3/C=C/c3n[nH]c4ccccc34)nc2c1 [Compound 185, (E)-2-{2-[2-(1H-indazol-3-yl)vinyl]phenyl}benzoxazol-5-ylamine] | 93.2 | 
14 | O=C1c2cccc(O)c2C(=O)N1c1ccccc1/C=C/c1n[nH]c2ccccc12 [Compound 200, (E)-4-hydroxy-2-{2-[2-(1H-indazol-3-yl)vinyl]phenyl}isoindole-1,3-dione] | 67.5 | 
15 | O=C1c2ccc([N+](=O)[O-])cc2C(=O)N1c1ccccc1/C=C/c1n[nH]c2ccccc12 [Compound 192, (E)-2-{2-[2-(1H-indazol-3-yl)vinyl]phenyl}-5-nitroisoindole-1,3-dione] | 92.3 | 
16 | Cc1ccsc1C(=O)Nc1cc(C(=O)N2CC[C@@H](N)C2)ccc1/C=C/c1n[nH]c2ccccc12 [Compound 221, (E)-(R)—N-{2-[2-(1H-indazol-3-yl)vinyl]-5-(3-aminopyrrolidin-1-ylcarbonyl)phenyl}-3-methylthiophene-2-carboxamide hydrochloride] | 95.8 | 
17 | CCOC(=O)c1csc(Nc2ccccc2/C=C/c2n[nH]c3ccccc23)n1 [Compound 169, (E)-2-{2-[2-(1H-indazol-3-yl)vinyl]phenylamino}thiazole-4-carboxylic acid ethyl ester] | 88.4 | 
18 | O=C1C(Cl)=C(Cl)C(=O)N1c1ccccc1/C=C/c1n[nH]c2ccccc12 [Compound 207, (E)-3,4-dichloro-1-{2-[2-(1H-indazol-3-yl)vinyl]phenyl}pyrrole-2,5-dione] | 98.1 | 
19 | Cc1ccc2c(c1)C(=O)N(c1ccccc1/C=C/c1n[nH]c3ccccc13)C2=O [Compound 197, (E)-2-{2-[2-(1H-indazol-3-yl)vinyl]phenyl}-5-methylisoindole-1,3-dione] | 101 | 
20 | CN(C)C(=O)c1nc(-c2ccccc2/C=C/c2n[nH]c3ccccc23)no1 [Compound 176, (E)-N,N-dimethyl-3-{2-[2-(1H-indazol-3-yl)vinyl]phenyl}[1,2,4]oxadiazole-5-carboxamide] | 100 | 
21 | O=C(c1cnc(Nc2ccccc2/C=C/c2n[nH]c3ccccc23)s1)N1CCC(O)CC1 [Compound 171, (E)-4-hydroxy-1-{2-[2-(2-(1H-indazol-3-yl)vinyl)phenylamino]thiazole-5-ylcarbonyl}piperidine] | 87.2 | 
22 | CS(=O)(=O)c1ccc(C(=O)Nc2ccccc2/C=C/c2n[nH]c3ccccc23)cc1 [Compound 215, (E)-N-{2-[2-(1H-indazol-3-yl)vinyl]phenyl}-4-methanesulfonylbenzamide] | 81.2 | 
23 | O=C(Nc1ccccc1/C=C/c1n[nH]c2ccccc12)c1ccc([N+](=O)[O-])s1 [Compound 51, (E)-N-{2-[2-(1H-indazol-3-yl)vinyl]phenyl}-5-nitrothiophene-2-carboxamide] | 100 | 
24 | Cc1ccc(C)n1-c1ccccc1/C=C/c1n[nH]c2ccccc12 [Compound 190] |  | 96.9
25 | C(=C\c1n[nH]c2ccccc12)/c1ccccc1Nc1ccccn1 [Compound 164, (E)-N-{2-[2-(1H-indazol-3-yl)vinyl]phenyl}-2-pyridylamine] | 99.1 | 
26 | O=C(c1ccc(/C=C/c2n[nH]c3ccccc23)c(N2C(=O)c3ccccc3C2=O)c1)N1CCN(CCO)CC1 [Compound 286, (E)-2-[5-[4-(2-hydroxyethyl)piperazin-1-ylcarbonyl]-2-[2-(1H-indazol-3-yl)vinyl]phenyl]isoindole-1,3-dione] | 96.1 | 
27 | O=C(Nc1cc(C(=O)N2CCN(CCCO)CC2)ccc1/C=C/c1n[nH]c2ccccc12)c1ccco1 [Compound 291, (E)-N-{5-[4-(3-hydroxypropyl)piperazin-1-ylcarbonyl]-2-[2-(1H-indazol-3-yl)vinyl]phenyl}furan-2-carboxamide] | 97.7 | 
28 | CCNc1ccc2c(c1)C(=O)N(c1ccccc1/C=C/c1n[nH]c3ccccc13)C2=O [Compound 201, (E)-5-ethylamino-2-{2-[2-(1H-indazol-3-yl)vinyl]phenyl}isoindole-1,3-dione] | 99.1 | 
29 | O=C1c2ccccc2C(=O)N1c1cc(N2CCN(CCO)CC2)ccc1/C=C/c1n[nH]c2ccccc12 [Compound 299, (E)-2-{5-[4-(2-hydroxyethyl)piperazin-1-yl]-2-[2-(1H-indazol-3-yl)vinyl]phenyl}isoindole-1,3-dione] | 92.9 | 
30 | O=C1c2cc3ccccc3cc2C(=O)N1c1ccccc1/C=C/c1n[nH]c2ccccc12 [Compound 202, (E)-2-{2-[2-(1H-indazol-3-yl)vinyl]phenyl}benzo[f]isoindole-1,3-dione] | 85.9 | 

Same assay, conditions: test compound 10 μmol/L

Row | SMILES | inhibitory activity (%) at 10 μmol/L [%] | inhibition at 10 µM [%]
31 | Cc1ccsc1C(=O)Nc1cc(C(=O)N2CCN(C)CC2)ccc1/C=C/c1n[nH]c2ccccc12.Cl [Compound 128, (E)-N-{2-[2-(1H-indazol-3-yl)vinyl]-5-(4-methylpiperazine-1-ylcarbonyl)phenyl}-3-methylthiophene-2-carboxamide hydrochloride] | 98.8 | 
32 | Cc1ccsc1C(=O)Nc1cc(C(=O)NCCO)ccc1/C=C/c1n[nH]c2ccccc12 [Compound 114, (E)-N-{5-[N-(2-hydroxyethyl)carbamoyl]-2-[2-(1H-indazol-3-yl)vinyl]phenyl}-3-methylthiophene-2-carboxamide] |  | 92
33 | Cc1ccsc1C(=O)Nc1cc(C(=O)N(C)C)ccc1/C=C/c1n[nH]c2ccccc12.Cl [Compound 125, (E)-N-{5-(N,N-dimethylcarbamoyl)-2-[2-(1H-indazol-3-yl)vinyl]phenyl}-3-methylthiophene-2-carboxamide hydrochloride] | 100.9 | 
34 | COC1CCN(C(=O)c2ccc(/C=C/c3n[nH]c4ccccc34)c(NC(=O)c3sccc3C)c2)CC1.Cl [Compound 127, (E)-N-{2-[2-(1H-indazol-3-yl)vinyl]-5-(4-methoxypiperidin-1-ylcarbonyl)phenyl}-3-methylthiophene-2-carboxamide hydrochloride] | 101.9 | 
35 | O=C(Nc1ccccc1/C=C/c1n[nH]c2ccccc12)c1ccc([N+](=O)[O-])cc1Cl [Compound 81, (E)-2-chloro-N-{2-[2-(1H-indazol-3-yl)vinyl]phenyl}-4-nitrobenzamide] |  | 60.7
